What was measured:
Type in all cases: functional
Conditions in all cases: read-out: ED50 (the source's name)
A549 = assay: Cytotoxicity against human A549 cells by tetrazolium salt-based colorimetric assay
KB = assay: Cytotoxicity against human KB cells by tetrazolium salt-based colorimetric assay
TE-671 = assay: Cytotoxicity against human TE671 cells by tetrazolium salt-based colorimetric assay
[1] = Cytotoxicity against human […] cells by tetrazolium salt-based colorimetric assay
HCT-8 = assay: Cytotoxicity against human HCT8 cells by tetrazolium salt-based colorimetric assay

Row | SMILES | EC50 (A549) [µg/mL] | EC50 (KB) [µg/mL] | EC50 (TE-671) [µg/mL] | EC50 [1] [µg/mL] | EC50 (HCT-8) [µg/mL]
1 | O=C1O[C@H]2[C@H](OC(=O)c3cc(O)c(O)c(O)c3)[C@@H](OC(=O)c3cc(O)c(O)c4c3[C@@H]3C1=CC(=O)C(O)(O)C3(O)O4)[C@H](OC(=O)c1cc(O)c(O)c(O)c1)O[C@@H]2COC(=O)c1cc(O)c(O)c(O)c1 (stereo not given in full) [TERCHEBIN] | > 10 | > 10 | > 10 | > 10 | > 10
2 | O=C1OCC2OC(=O)c3cc(O)c(O)c(O)c3-c3c(O)c(O)c(O)c4c3C(=O)OC(C2OC(=O)c2cc(O)c(O)c(O)c2-c2c1cc(O)c(O)c2O)C1OC(=O)c2c-4c(O)c(O)c(O)c2C1O (stereo not given) [VESCALAGIN] | > 10 | > 10 | > 10 | 0.58 | > 10
